How the values were obtained:
Format in all cases: cell-based, Human
HB4A = assay: Quantification of CMP-Neu5Ac, UDP-GlcNAc, surface Neu5Ac and surface Neu5Gc (HPLC)
Description: (§1) Protocol for nutrient deprivation of cells in suspension: Step 1, cell cultures were harvested as described above. Step 2, cells were resuspended in serum-free RPMI-1640 medium and pelleted by centrifugation at 900×g for 5 min; during this step cells experience 10 min of nutrient deprivation in serum-free media without Neu5Ac. Step 3, the cells were rinsed twice in 37° C. PBS by centrifugation for 5 min and 1 mL aliquots of 1×10^4 cells were pipetted gently into 15 mL BD Falcon tubes; during this step the cells experience an additional 20 min of nutrient-deprivation. Step 3, cell suspension aliquots corresponding to […] were equilibrated in tubes containing Neu5Ac-PBS buffer by placing the tubes with opened caps for 60 min in a humidified incubator at 37° C. and 5% CO2 with continuous shaking at 30 strokes per minute; during this Neu5Ac-supplementation step, negative controls were maintained in non-supplemented PBS. Step 4, the Neu5Ac-PBS solution was decanted, the tubes were gently tapped to loosen the gravity-pelleted cells, and then rinsed twice in warm (37° C.) PBS followed by pelleting by 5 min of centrifugation each time, this process provided an additional 30 min of nutrient-deprivation in the absence of supplemental Neu5Ac. The entire 5 step process results in 2 h of nutrient deprivation, after which the cells were analyzed by the methods listed below with the exception of the wound healing assays and lectin staining which used cells that were nutrient-deprived under adherent conditions. Protocol for nutrient deprivation of adherent cells. Step 1, cells were cultured on sterile glass microscope cover slips for two days. Step 2, the cover slips were placed in a sterile plastic rack in warm (37° C.) PBS buffer for 30 min, then the PBS was replaced with Neu5Ac-PBS solution for 60 min to provide Neu5Ac supplementation (controls were maintained in non-supplemented PBS), and then the cell-laden cover slips were placed back in PBS buffer for 30 min. All incubations were performed in a humidified incubator at 37° C. and 5% CO2 with continuous shaking at 30 strokes per minute. Overall this process mimics the non-adherent treatment conditions with respect to the duration of nutrient-deprivation (2 h total) and Neu5Ac supplementation (60 min).
(§2) Cells were split and cultured (before feeding experiments) in RPMI1640 medium supplemented with 1% heat-inactivated human serum (RPMI/HUS) instead of FBS, resulting in chase-out of existing Neu5Gc. Subsequently, cells were fed with 10 mM Neu5Gc in RPMI/HUS medium or under nutrient deprived conditions as described above.
(§3) PBS-washed cells (1 Million) (untreated or Neu5Ac treated) were lysed by hypotonic shock in 1 mL water (15 min, 4° C.). The intracellular cytidine-5′-monophospho-N-acetylneuraminic acid (CMP-Neu5Ac) and uridine-5′-diphospho-N-acetyl-D-glucosamine (UDP-GlcNAc) were purified from the cell lysates and analyzed by ion-pair reversed-phase high performance liquid chromatography (IP RP HPLC) using a ODS column as described. Cell membrane-bound Neu5Ac (from untreated and Neu5Ac treated) and Neu5Gc (from untreated and Neu5Gc treated) were determined by acid hydrolysis followed by derivatization with 1,2-diamino-4,5-methylenedioxybenze (DMB) and HPLC separation as previously described. The content of CAMP-Neu5Ac, UDP-GlcNAc, surface Neu5Ac, and surface Neu5Gc was shown in nano mole per mg cell protein from five independent experiments.
(§4) Table-1: Quantification of nucleotide sugars, surface Nec5Ac, UDP-GlcNAc, Neu5Gc: Cells were treated in the presence and absence of 10 mM Nue5Ac for 2 h under nutrient deprivation and quantity of CMP-Neu5Ac (A), surface Neu5Ac (B), and UDP-GlcNAc (C) were determined. D. For quantification of surface Neu5Gc cells were treated with 10 mM Neu5Gc for 2 hrs under nutrient deprivation. The content of CMP-Neu5Ac, UDP-GlcNAc and Neu5Gc was shown in nano mole per mg cell protein from 5 independent experiments.

MCF10A = assay: as above
Description: as §1, §2, §3, §4

MCF7 = assay: as above
Description: as §1, §2, §3, §4

MDA MB231 = assay: as above
Description: as §1, §2, §3, §4

T47D = assay: as above
Description: as §1, §2, §3, §4

MDA MB231 cells = assay: Microarray of genes upregulated after sialic acid treatment under nutrient deprivation
Description: The membrane glycosylation of the cancer cells is synchronized by the alteration of gene expression. The microarray was performed aiming to identify the genes that had undergone changes induced by the enriched sugar environment. […] Inventors examined the status of the expression of those genes at both transcriptional and translational level, in another word, at mRNA and protein level by performing the quantitative real time polymerase chain reaction (qRT-PCR) and immunoblot. Remarkably, qRT-PCR and Western blot are 2 techniques that are used to quantify the expression of mRNA and protein. Data of qRT-PCR and Western blot were in strong agreement with the microarray data indicating a clear link between the expression of those genes and glycosylation of cell membrane domain. This patent aims to pursue the cancer cell management by targeting those genes at mRNA and protein level. Small interference RNA (siRNA) and small hairpin RNA (shRNA) will be designed to knockdown the mRNA. Similarly, the functions of the genes at protein level will be inhibited or disrupted by using antibody, small peptide, pharmaceutical blocker, and targeted toxin. Regression of cancer cells will be verified following transcriptional and translational manipulation.

[1] = tested on: cancer and normal control cells; assay: TUNEL assay flow cytometry of apoptosis after sialic acid treatment
Description: For this purpose, cells were fixed by suspending them in 70% (v/v) ethanol and stored at 4° C. for 15 min, washed twice with cold PBS, and then placed in 96-well plates (1×10^4 cells per well). The cells were then stained with the fluorescein isothiocyanate-labeled lectins (SWGA, WGA, SNA and MAL-1). For the comparison of mean fluorescence intensities, the instrument settings for fluorescence and compensation were the same for all experiments. Data were collected from at least 10,000 cells for each sample. For TUNEL assay, cells were incubated with DNA-labeling solution (10 μL reaction buffer, 0.75 μL TdT enzyme, 8 μL BrdUTP, 31.25 μL of dH2O) for 1 h at 25° C. Each sample was then exposed to an antibody solution consisting of 5 μL Alexa Fluor 488 labeled anti-BrdU antibody with 95 μL rinse solution and allowed to react for 20 min.
FIG. 6: Optimization of conditions for nutrient deprivation and rescue via sialic acid supplementation. […] Data are the representative of five independent experiments.

[2] = tested on: cancer cells T47D, MCF7, MDA MB231; assay: Membrane glycosylation of cancer cells compared to normal control cells (Table 1 summary); settings: 10 mM, all the cancer cells compared to control normal cells
Description: as §3
Human normal mammary epithelial cell lines MCF10A and HB4A and breast cancer cell lines T47D, MCF7 and MDA MB231 (American Type Culture Collection, USA) used in the study were cultured and treated according to the methods described earlier. Cells were nutritionally deprived using different time points followed by the sialic acid supplementation according to the method described earlier. […] The data were in strong agreement with the immunoblot data which were derived by assessing different enzymes responsible for glycosylation. […]

[3] = treated with 10 mM Neu5Ac for 2 h under nutrient deprivation
[4] = MCF7, treated with 10 mM Neu5Ac for 2 h under nutrient deprivation
[5] = MDA MB231, treated with 10 mM Neu5Ac for 2 h under nutrient deprivation
[6] = 10 mM sialic acid under nutrient deprivation relative to the untreated control
[7] = treated with 10 mM Neu5Gc for 2 hrs under nutrient deprivation

SMILES: CC(=O)N[C@H]1[C@H]([C@H](O)[C@H](O)CO)OC(O)(C(=O)O)C[C@@H]1O (some centres unmarked) [Neu5Ac, N-acetyl-5-neuraminic acid]
- CMP-Neu5Ac (HB4A; [3]): 0.51 ± 1.33 nano mole per mg cell protein
- UDP-GlcNAc (HB4A; [3]): 5.32 ± 7.41 nano mole per mg cell protein
- surface Neu5Ac (HB4A; [3]): 1.83 ± 2.09
- CMP-Neu5Ac (MCF10A; [3]): 0.45 ± 1.92 nano mole per mg cell protein
- UDP-GlcNAc (MCF10A; [3]): 5.18 ± 2.52 nano mole per mg cell protein
- surface Neu5Ac (MCF10A; [3]): 1.81 ± 2.15
- CMP-Neu5Ac (MCF7; [4]): 2.253 ± 1.77 nano mole per mg cell protein
- UDP-GlcNAc (MCF7; [4]): 12.40 ± 3.66 nano mole per mg cell protein
- surface Neu5Ac (MCF7; [4]): 7.05 ± 3.95
- CMP-Neu5Ac (MDA MB231; [5]): 2.496 ± 2.63 nano mole per mg cell protein
- UDP-GlcNAc (MDA MB231; [5]): 12.53 ± 4.2 nano mole per mg cell protein
- surface Neu5Ac (MDA MB231; [5]): 7.12 ± 4.91
- CMP-Neu5Ac (T47D; [3]): 1.06 ± 1.42 nano mole per mg cell protein
- UDP-GlcNAc (T47D; [3]): 6.513 ± 5.3 nano mole per mg cell protein
- surface Neu5Ac (T47D; [3]): 5.07 ± 4.56
- Log2 Ratio, CHI3L2 (MDA MB231 cells; [6]): 2.68
- Log2 Ratio, EQTN (MDA MB231 cells; [6]): 3.078
- Log2 Ratio, OSMR (MDA MB231 cells; [6]): 2.215
- Log2 Ratio, PCMTD1 (MDA MB231 cells; [6]): 2.118
- Log2 Ratio, PHLDA1 (MDA MB231 cells; [6]): 2.626
- Log2 Ratio, RICTOR (MDA MB231 cells; [6]): 2.334
- Log2 Ratio, RSRP1 (MDA MB231 cells; [6]): 2.33
- Log2 Ratio, RUNX2 (MDA MB231 cells; [6]): 2.21
- Log2 Ratio, SCG2 (MDA MB231 cells; [6]): 2.171
- Log2 Ratio, SEC24D (MDA MB231 cells; [6]): 2.199
- expression of 10 particular genes in sialic acid treated cancer cells (MDA MB231 cells; compared to normal control cells): more than 5 folds
- apoptosis ([1]; 180 minutes, both cell types, cancer and normal control cells): significant apoptosis
- apoptosis ([1]; 240 minutes, both cell types, cancer and normal control cells): significant apoptosis
- apoptosis ([1]; cells treated for 120 minutes, 10 mM sialic acid, nutrient deprived condition): no apoptosis

SMILES: O=C(CO)N[C@H]1[C@H]([C@H](O)[C@H](O)CO)OC(O)(C(=O)O)C[C@@H]1O (some centres unmarked) [Neu5Gc, N-glycolylneuraminic acid]
- surface Neu5Gc (HB4A; [7]): 0.182 ± 0.73 nano mole per mg cell protein
- surface Neu5Gc (MCF10A; [7]): 0.177 ± 0.31 nano mole per mg cell protein
- surface Neu5Gc (MCF7; MCF7, treated with 10 mM Neu5Gc for 2 hrs under nutrient deprivation): 1.58 ± 0.912 nano mole per mg cell protein
- surface Neu5Gc (MDA MB231; MDA MB231, treated with 10 mM Neu5Gc for 2 hrs under nutrient deprivation): 1.79 ± 0.982 nano mole per mg cell protein
- surface Neu5Gc (T47D; [7]): 0.608 ± 0.675 nano mole per mg cell protein
- glycosylation of membrane [2]: upregulated the glycosylation significantly
